System: S. aureus ATCC 6538P
Assay: Agar plate test of cream against S. aureus (colonies recovered)
Assay type: cell-based
Conditions: farnesol when combined with cetrimide
Protocol: A series of plates were then prepared containing an aliquot of sample (3) prepared in accordance with the preferred formula given above. The aliquot was suspended in tryptone soy agar. 1 g of the cream was emulsified into 5 mL of saline. A 2 mL aliquot was removed and serially diluted using saline. 6 mL of tryptone soy broth was then added to the suspensions. They were then added to 10 ml, of molten double strength tryptone soy agar and plate poured. Once cooled the plates were inoculated with 94 cfu of S. aureus ATCC 6538P. The plates were then incubated at 32° C. for 5 days. Following the incubation the number of colonies of S. aureus isolated was then determined.

Question: For `CC(C)=CCCC(C)=CCCC(C)=CCO` [farnesol], which “Antimicrobial effect of the combination” value is on record?
Answer: Its value is “synergistic antimicrobial effects”.

Source: patent publication US9585846B2, “Anti-microbial composition” (Wild Child, priority 2007, dated 2017)
